# Experimental data taken from patent US6518304B1, “Fungicidal composition” (Sumitomo Chemical Company, Limited, priority 1993, dated 2003).
# Where two headings read alike, the source gives them in different places.
# Columns and labels:
# [1] = tested on: grape downy mildew fungus (Plasmopara viticola); assay: Test Example 2: grape downy mildew, spray then inoculation, infection rate; type: in vivo; details: 10 ppm; grape plant, 1 week at 24° C.
# From the text: A grape plant (cultivar: Berry A) was planted in each pot and was sprayed with a sufficient volume of a dilution with a predetermined concentration of a wettable powder obtained according to Formulation Example 5, after the plant put out a fourth leaf.
# gray mold fungus [2] = assay: Test Example 3: cucumber gray mold, foliage application before inoculation; details: 20 ppm; cucumber seedling, applied before inoculation, 4 days
# Procedure: Each of plastic pots was filled with sandy loam and sown with cucumber (Sagamihanjiro), followed by growing in a greenhouse for 14 days. A wettable powder of test agents prepared according to Formulation Example 11 was diluted to a predetermined concentration with water, and foliage application of the dilution was carried out so as to adhere the dilution sufficiently to the surfaces of leaves of the grown cucumber young seedling. After air-drying, gray mold fungus was inoculated on the surfaces of leaves of the young seedling, and the young seedling was grown in the dark at 10° C. and a high humidity for 4 days, after which the infection rate (%) was investigated.
# apple scab fungus [3] = assay: Test Example 8: apple scab, foliage application then inoculation; type: in vivo, Venturia inaequalis; details: 0.5 ppm; apple seedling
# [4] = tested on: tomato late blight fungus; type: in vivo, Phytophthora infestans; details: 10 ppm; tomato seedling
# [5] = tested on: grape powdery mildew fungus (Uncinula necator); assay: Test Example 14: grape powdery mildew, spray then inoculation; type: in vivo; details: 1 ppm; grape plant, 3 weeks at 24° C.
# gray mold fungus [6] = assay: Test Example 11: cucumber gray mold, foliage application before inoculation; details: 20 ppm; cucumber seedling
# Procedure: Each of plastic pots was filled with sandy loam and sown with cucumber (Sagamihanjiro), followed by growing in a greenhouse for 14 days. A wettable powder of test agents prepared according to Formulation Example 35 was diluted to a predetermined concentration with water, and foliage application of the dilution was carried out so as to adhere the dilution sufficiently to the surfaces of leaves of the grown cucumber young seedling. After air-drying, gray mold fungus was inoculated on the surfaces of leaves of the young seedling, and the young seedling was grown in the dark at 10° C. and a high humidity for 4 days, after which the infection rate (%) was investigated.
# [7] = tested on: gray mold fungi tolerant to benzimidazole type fungicidal compounds; assay: Test Example 12: cucumber gray mold, benzimidazole-tolerant (resistant) fungus; details: 20 ppm; cucumber seedling
# Procedure: Each of plastic pots was filled with sandy loam and sown with cucumber (Sagamihanjiro), followed by growing in a greenhouse for 14 days. […] After air-drying, each of gray mold fungi sensitive and tolerant, respectively, to benzimidazole type fungicidal compounds was inoculated on the surfaces of leaves of the young seedling, and the young seedling was grown in the dark at 10° C. and a high humidity for 4 days, after which the infection rate (%) was investigated.
# [8] = tested on: gray mold fungi sensitive to benzimidazole type fungicidal compounds; assay: Test Example 12: cucumber gray mold, benzimidazole-sensitive fungus; details: 20 ppm; cucumber seedling
# Procedure: Each of plastic pots was filled with sandy loam and sown with cucumber (Sagamihanjiro), followed by growing in a greenhouse for 14 days. A wettable powder of test agents prepared according to Formulation Example 41 was diluted to a predetermined concentration with water, and foliage application of the dilution was carried out so as to adhere the dilution sufficiently to the surfaces of leaves of the grown cucumber young seedling. After air-drying, each of gray mold fungi sensitive and tolerant, respectively, to benzimidazole type fungicidal compounds was inoculated on the surfaces of leaves of the young seedling, and the young seedling was grown in the dark at 10° C. and a high humidity for 4 days, after which the infection rate (%) was investigated.
# gray mold fungus [9] = assay: Test Example 4: cucumber gray mold, foliage application after inoculation; details: 20 ppm; cucumber seedling, applied after inoculation
# Procedure: Each of plastic pots was filled with sandy loam and sown with cucumber (Sagamihanjiro), followed by growing in a greenhouse for 14 days. Gray mold fungus was inoculated on the surfaces of leaves of the grown cucumber young seedling, and the young seedling was grown in the dark at 10° C. and a high humidity for 2 days and then at a temperature of 23° C. for 3 days. A wettable powder of test agents prepared according to Formulation Example 11 was diluted to a predetermined concentration with water, and foliage application of the dilution was carried out so as to adhere the dilution sufficiently to the surfaces of leaves of the cucumber young seedling. After the spraying, the young seedling was grown in the dark at 10° C. and a high humidity for 3 days, and then the infection rate (%) was investigated.
# [10] = tested on: tomato late blight fungus (Phytophthora infestans); type: in vivo; details: 10 ppm; tomato plant, 1 week at 24° C.
# [11] = tested on: gray mold fungi sensitive to benzimidazole type fungicidal compounds; assay: Test Example 17: cucumber gray mold, benzimidazole-sensitive fungus; details: 20 ppm; cucumber seedling
# Procedure: (§1) Each of plastic pots was filled with sandy loam and sown with cucumber (Sagamihanjiro), followed by growing in a greenhouse for 14 days. A wettable powder of test agents prepared according to Formulation Example 59 was diluted to a predetermined concentration with water, and foliage application of the dilution was carried out so as to adhere the dilution sufficiently to the surfaces of leaves of the grown cucumber young seedling. After air-drying, each of gray mold fungi sensitive and tolerant, respectively, to benzimidazole type fungicidal compounds was inoculated on the surfaces of leaves of the young seedling, and the young seedling was grown in the dark at 10° C. and a high humidity for 4 days, after which the infection rate (%) was investigated.
# [12] = tested on: grape downy mildew fungus; assay: Test Example 7: grape downy mildew, foliage application then inoculation; details: 2 ppm; grape seedling
# Procedure: (§2) Each of plastic pots was filled with sandy loam and sown with grape (Berry A), followed by growing in a greenhouse for 40 days. […] Then, the young seedling was inoculated with a suspension of zoosporangia of grape downy mildew fungus by spraying. After the inoculation, the young seedling was allowed to stand overnight at 23° C. and a high humidity and then grown in a greenhouse for 7 days, after which the infection rate (%) was investigated.
# apple scab fungus [13] = assay: Test Example 13: apple scab, foliage application then inoculation; type: in vivo, Venturia inaequalis; details: 0.5 ppm; apple seedling
# [14] = tested on: grape downy mildew fungus; assay: Test Example 6: grape downy mildew, foliage application then inoculation; details: 1 ppm; grape seedling
# Procedure: as §2
# [15] = tested on: tomato late blight fungus (Phytophthora infestans); type: in vivo; details: 10 ppm; tomato plant, 1 week at 24° C.; remark: listed apart in the source
# [16] = tested on: gray mold fungi tolerant to benzimidazole type fungicidal compounds; assay: Test Example 17: cucumber gray mold, benzimidazole-tolerant (resistant) fungus; details: 20 ppm; cucumber seedling
# Procedure: as §1
# [17] = tested on: tomato late blight fungus; type: in vivo, Phytophthora infestans; details: 5 ppm; tomato seedling
# [18] = tested on: grape downy mildew fungus; assay: Test Example 9: grape downy mildew, foliage application then inoculation; details: 10 ppm; grape seedling
# Procedure: as §2
# [19] = tested on: grape powdery mildew fungus (Uncinula necator); assay: Test Example 16: grape powdery mildew, spray then inoculation; type: in vivo; details: 10 ppm; grape plant, 3 weeks at 24° C.
structure (smiles),measurement,setting,value
"CNC(=O)C(=NOC)c1ccccc1COc1cc(C)ccc1C [Compound (Ie), N-methyl-α-methoxyimino-2-[(2,5-dimethylphenoxy)methyl]phenylacetamide]",Infection rate (%),[1],25%
same,Infection rate (%),gray mold fungus [2],25%
same,Infection rate (%),apple scab fungus [3],20%
same,Infection rate (%),[4],20%
same,Infection rate (%),[5],25%
same,Infection rate (%),gray mold fungus [6],25%
same,Infection rate (%) Resistant fungus,[7],25%
same,Infection rate (%) Sensitive fungus,[8],25%
same,Infection rate (%),gray mold fungus [9],25%
same,Infection rate (%),[10],25%
same,Infection rate (%) Sensitive fungus,[11],25%
same,Infection rate (%),[12],20%
same,Infection rate (%),apple scab fungus [13],20%
same,Infection rate (%),[14],25%
same,Infection rate (%),[15],25%
same,Infection rate (%) Resistant fungus,[16],25%
same,Infection rate (%),[17],25%
same,Infection rate (%),[18],25%
same,Infection rate (%),[19],25%
